Reference: patent US20260274853A1, “BIFUNCTIONAL COMPOUNDS CONTAINING PYRIMIDINE DERIVATIVES FOR DEGRADING CYCLIN-DEPENDENT KINASE 2 VIA UBIQUITIN PROTEASOME PATHWAY” (NIKANG THERAPEUTICS, INC., priority 2022, published 2026)

Key:
CDK2 [1] = target: T1, CDK2 (Homo sapiens, UniProt P24941); assay: Inhibition of CDK2: phospho-Rb (S807/811) HTRF measurement in OVCAR3 cells; format: cell-based; conditions: 24 h compound treatment, read-out: pRb (nM), IC50 in pRB(S807/811) assay
T1 construct: High-Throughput Measurement of Cellular Endogenous CDK2; endogenous in cells; host or cells: OVCAR3
Method: Phosphorylation of RB protein at S807/811 were measured using HTRF phospho-RB cellular kits (Cat #64RBS807PEG) from Cisbio.
On Day 1, OVCAR3 (dependent on CDK2) cells were seeded into 96-well tissue-culture treated plates at 20,000 cells/well in 200 μL and incubated overnight at 37° C. in CO2 atmosphere. On Day 2, the cells were treated with test compounds at concentrations from 0.3 to 10,000 nM using HP D300 digital dispenser. Twenty-four hours after compound treatment, cell culture media was removed by flicking the plate and tapping the plate against clean paper towel. Immediately 30 μL 1× lysis buffer was supplemented from the kit and the plate was incubated at room temperature on shaker for 30 min. After homogenization by pipetting up and down, 8 μL cell lysate from 96-well cell culture plate was transferred to 384-well small volume white detection plate. 2 μL premixed detection solution was added and the plate was covered with sealer. To prepare the detection solution, d2 conjugated-phospho-RB antibody and Eu-cryptate conjugated phosphor-RB antibody were diluted into detection buffer following manufacturer's instruction. Detection plates were incubated for 4 h at room temperature and read on ClarioStar (BMG Labtech) in TR-FRET mode (665 nM and 620 nM). The TR-FRET ratio (665 nM/620 nM) was plotted against the compound concentration and normalized to DMSO controls. Half maximal inhibition concentration (IC50) values are calculated with a four-parameter logistic fit using GraphPad Prism (version 8; La Jolla, CA).
In the table below, A indicates a IC50 of less than 0.1 μM; B indicates a IC50 of greater than or equal to 0.1 μM but less than 0.5 μM; C indicates a IC50 of greater than or equal to 0.5 μM but less than 1 μM; and D indicates a […] of greater than or equal to 1 μM but less than 10 μM.

CDK2 [2] = target: T1, CDK2; assay: CDK2 HTRF assay: cellular endogenous CDK2 level in OVCAR3 cells; format: cell-based; conditions: 24 hours compound treatment; for DC50: read-out: DC50 (half maximal degradation concentration of CDK2)
Method: Effects of compounds on cellular CDK2 level can be monitored by a high-throughput HTRF assay or traditional Western Blot assay.
To determine half maximal degradation concentration (DC50) values of compounds, cellular CDK2 level was measured in 96-well format using HTRF total CDK2 cellular kit (Cat #64CDK2TPEG) from Cisbio.
On Day 1, OVCAR3 cells were seeded into 96-well tissue-culture treated plates at 20,000 cells/well in 200 μL and incubated overnight at 37° C. in CO2 atmosphere. On Day 2 cells were treated with compounds at concentration ranging from 0.3 to 10,000 nM using HP D300 digital dispenser. 24 hours after compound treatment, cell culture media was removed by flicking the plate and tapping the plate against clean paper towel. Immediately 30 μL 1× lysis buffer was supplemented from the kit and the plate was incubated at room temperature on shaker for 30 min. After homogenization by pipetting up and down, 8 μL cell lysate from 96-well cell culture plate was transferred to 384-well small volume white detection plate. 2 μL premixed detection solution was added and the plate was covered with sealer. To prepare the detection solution, d2 conjugated-CDK2 antibody and Eu-cryptate conjugated CDK2 antibody were diluted into detection buffer following manufacturer's instruction. Detection plates were incubated overnight at room temperature and read on ClarioStar (BMG Labtech) in TR-FRET mode (665 nM and 620 nM). The TR-FRET ratio (665 nM/620 nM) was plotted against the compound concentration and normalized to DMSO controls. Half maximal degradation concentration (DC50) values were calculated with a four-parameter logistic fit using GraphPad Prism (version 8; La Jolla, CA).
In the table below, A indicates a DC50 of less than 0.1 μM; B indicates a DC50 of greater than or equal to 0.1 μM but less than 0.5 μM; C indicates a DC50 of greater than or equal to 0.5 μM but less than 1 μM; and D indicates a DC50 of greater than or equal to 1 μM but less than 10 μM.

| SMILES | IC50 (CDK2 [1]) | DC50 (CDK2 [2]) | DC50 (half maximal degradation concentration of CDK2) (CDK2 [2]) |
| --- | --- | --- | --- |
| O=C1CCC(N2C(=O)c3cc(F)c(N4CCN(Cc5cccc(S(=O)(=O)N6CCC(Nc7ncc(C(F)(F)F)c(-c8cnn(CC(F)F)c8)n7)CC6)c5)CC4)cc3C2=O)C(=O)N1 (stereo not drawn) [Example 22, 5-(4-(3-((4-((4-(1-(2,2-difluoroethyl)-1H-pyrazol-4-yl)-5-(trifluoromethyl)-pyrimidin-2-yl)amino)-piperidin-1-yl)sulfonyl)benzyl)piperazin-1-yl)-2-(2,6-dioxopiperidin-3-yl)-6-fluoroiso-indoline-1,3-dione] | 100 to 500 nM | < 100 nM | – |
| O=C1CCN(c2ccc(N3CCN(Cc4cccc(S(=O)(=O)N5CCC(Nc6ncc(C(F)(F)F)c(-c7cnn(CC(F)(F)F)c7)n6)CC5)c4)CC3)c(C(F)(F)F)c2)C(=O)N1 [Example 16, 1-(4-(4-(3-((4-((4-(1-(2,2,2-trifluoro-ethyl)-1H-pyrazol-4-yl)-5-(trifluoro-methyl)pyrimidin-2-yl)amino)-piperidin-1-yl)sulfonyl)benzyl)-piperazin-1-yl)-3-(trifluoromethyl)-phenyl)dihydro-pyrimidine-2,4(1H,3H)-dione] | 1000 to 10000 nM | 1000 to 10000 nM | – |
| O=C1CCC(N2C(=O)c3cc(F)c(N4CCN(Cc5cccc(S(=O)(=O)N6CCC(Nc7ncc(Cl)c(-c8cnn(CC(F)(F)F)c8)n7)CC6)c5)CC4)cc3C2=O)C(=O)N1 (stereo not drawn) [Example 9, 5-(4-(3-((4-((5-chloro-4-(1-(2,2,2-trifluoroethyl)-1H-pyrazol-4-yl)-pyrimidin-2-yl)amino)piperidin-1-yl)-sulfonyl)benzyl)piperazin-1-yl)-2-(2,6-dioxopiperidin-3-yl)-6-fluoro-isoindoline-1,3-dione] | 1000 to 10000 nM | – | no curve |
| Cn1nc(N2CCC(=O)NC2=O)c2ccc(C3CCN(Cc4cccc(S(=O)(=O)N5CC[C@H](Nc6ncc(C(F)(F)F)c(-c7cnn(CC(F)(F)F)c7)n6)[C@H](F)C5)c4)CC3)cc21 (racemic) [Example 6, Rac-1-(6-(1-(3-(((3R,4S)-3-fluoro-4-((4-(1-(2,2,2-trifluoroethyl)-1H-pyrazol-4-yl)-5-(trifluoromethyl)-pyrimidin-2-yl)amino)piperidin-1-yl)sulfonyl)-benzyl)piperidin-4-yl)-1-methyl-1H-indazol-3-yl)dihydro-pyrimidine-2,4(1H,3H)-dione] | < 100 nM | < 100 nM | – |
| Cn1nc(N2CCC(=O)NC2=O)c2ccc(C3CCN(CC(C)(C)Cc4cccc(S(=O)(=O)N5CCC(Nc6ncc(C(F)(F)F)c(-c7cnn(CC(F)(F)F)c7)n6)CC5)c4)CC3)cc21 [Example 98, 1-(6-(1-(2,2-dimethyl-3-(3-((4-((4-(1-(2,2,2-trifluoroethyl)-1H-pyrazol-4-yl)-5-(trifluoromethyl)pyrimidin-2-yl)amino)-piperidin-1-yl)sulfonyl)-phenyl)propyl)-piperidin-4-yl)-1-methyl-1H-indazol-3-yl)dihydro-pyrimidine-2,4(1H,3H)-dione] | < 100 nM | – | – |
| Cn1nc(N2CCC(=O)NC2=O)c2ccc(C3CCN(Cc4cc(S(=O)(=O)N5CCC(Nc6ncc(C(F)(F)F)c(-c7cnn(CC(F)(F)F)c7)n6)CC5)ccc4C(F)(F)F)CC3(F)F)cc21 (stereo not drawn) [Example 55] | 1000 to 10000 nM | – | – |

Second part, the molecule after the results:

| IC50 (CDK2 [1]) | DC50 (CDK2 [2]) | DC50 (half maximal degradation concentration of CDK2) (CDK2 [2]) | SMILES |
| --- | --- | --- | --- |
| < 100 nM | < 100 nM | – | O=C1CCC(c2ccc(N3CCN(Cc4cccc(S(=O)(=O)N5CCC(Nc6ncc(C(F)(F)F)c(-c7cnn(CC(F)(F)F)c7)n6)CC5)c4)CC3)cc2)C(=O)N1 (stereo not drawn) [Example 2, 3-(4-(4-(3-((4-((4-(1-(2,2,2-trifluoro-ethyl)-1H-pyrazol-4-yl)-5-(trifluoro-methyl)pyrimidin-2-yl)amino)piperidin-1-yl)sulfonyl)benzyl)piperazin-1-yl)-phenyl)piperidine-2,6-dione] |
| < 100 nM | < 100 nM | – | Cn1cc(-c2nc(NC3CCN(S(=O)(=O)c4cccc(CN5CCC(c6ccc7c(N8CCC(=O)NC8=O)nn(C)c7c6)CC5)c4)CC3)ncc2C(F)(F)F)cn1 [Example 33, 1-(1-methyl-6-(1-(3-((4-((4-(1-methyl-1H-pyrazol-4-yl)-5-(trifluoromethyl)-pyrimidin-2-yl)amino)piperidin-1-yl)-sulfonyl)benzyl)piperidin-4-yl)-1H-indazol-3-yl)dihydropyrimidine-2,4(1H,3H)-dione] |
| < 100 nM | < 100 nM | – | O=C1CCN(c2ccc(N3CCN(Cc4cccc(S(=O)(=O)N5CCC(Nc6ncc(C(F)(F)F)c(-c7cnn(CC(F)(F)F)c7)n6)CC5)c4)CC3)c(F)c2)C(=O)N1 [Example 13, 1-(3-fluoro-4-(4-(3-((4-((4-(1-(2,2,2-trifluoroethyl)-1H-pyrazol-4-yl)-5-(trifluoromethyl)pyrimidin-2-yl)amino)-piperidin-1-yl)sulfonyl)benzyl)-piperazin-1-yl)phenyl)dihydro-pyrimidine-2,4(1H,3H)-dione] |
| < 100 nM | < 100 nM | – | O=C1CCC(c2ccc(N3CC4CCC(C3)N4Cc3cccc(S(=O)(=O)N4CCC(Nc5ncc(C(F)(F)F)c(-c6cnn(CC(F)(F)F)c6)n5)CC4)c3)cc2)C(=O)N1 (stereo not drawn) [Example 18, 3-(4-(8-(3-((4-((4-(1-(2,2,2-trifluoro-ethyl)-1H-pyrazol-4-yl)-5-(trifluoro-methyl)pyrimidin-2-yl)amino)-piperidin-1-yl)sulfonyl)benzyl)-3,8-diazabicyclo-[3.2.1]octan-3-yl)phenyl)-piperidine-2,6-dione] |
| < 100 nM | < 100 nM | – | O=C1CCC(N2C(=O)c3cc(F)c(N4CCN(Cc5cccc(S(=O)(=O)N6CCC(Nc7ncc(C(F)(F)F)c(-c8cnn(C9CCOCC9)c8)n7)CC6)c5)CC4)cc3C2=O)C(=O)N1 (stereo not drawn) [Example 10, 2-(2,6-dioxopiperidin-3-yl)-5-fluoro-6-(4-(3-((4-((4-(1-(tetrahydro-2H-pyran-4-yl)-1H-pyrazol-4-yl)-5-(trifluoromethyl)-pyrimidin-2-yl)amino)-piperidin-1-yl)-sulfonyl)benzyl)-piperazin-1-yl)iso-indoline-1,3-dione] |
| < 100 nM | < 100 nM | – | Cn1nc(N2CCC(=O)NC2=O)c2ccc(N3CC4CC(C3)N4Cc3cccc(S(=O)(=O)N4CC[C@H](Nc5ncc(C(F)(F)F)c(-c6cnn(CC(F)(F)F)c6)n5)[C@H](F)C4)c3)cc21 [Example 82, 1-(6-(6-(3-(((3R,4S)-3-fluoro-4-((4-(1-(2,2,2-trifluoroethyl)-1H-pyrazol-4-yl)-5-(trifluoromethyl)pyrimidin-2-yl)amino)-piperidin-1-yl)sulfonyl)-benzyl)-3,6-diazabicyclo[3.1.1]heptan-3-yl)-1-methyl-1H-indazol-3-yl)dihydro-pyrimidine-2,4(1H,3H)-dione] |
| < 100 nM | < 100 nM | – | Cn1nc(N2CCC(=O)NC2=O)c2cc(F)c(N3CCN(Cc4cccc(S(=O)(=O)N5CC[C@H](Nc6ncc(C(F)(F)F)c(-c7cnn(CC(F)(F)F)c7)n6)[C@H](F)C5)c4)CC3)cc21 [Example 73, 1-(5-fluoro-6-(4-(3-(((3R,4S)-3-fluoro-4-((4-(1-(2,2,2-trifluoroethyl)-1H-pyrazol-4-yl)-5-(trifluoromethyl)pyrimidin-2-yl)amino)piperidin-1-yl)sulfonyl)-benzyl)piperazin-1-yl)-1-methyl-1H-indazol-3-yl)dihydropyrimidine-2,4(1H,3H)-dione] |
